Laboratory results taken from the NIST ThermoML archive (doi:10.1007/s10765-006-0119-1).
Numbers after ± are expanded uncertainties.

Details: 101.33 kPa, Liquid, Oscillating Cup

## O=[N+]([O-])[O-].[Na+] [sodium nitrate]
590.3 K
  viscosity: 2.854 ± 0.11 mPa·s
599.3 K
  viscosity: 2.74 ± 0.11 mPa·s
600 K
  viscosity: 2.658 ± 0.11 mPa·s
600.3 K
  viscosity: 2.638 ± 0.11 mPa·s
613.2 K
  viscosity: 2.437 ± 0.098 mPa·s
640.9 K
  viscosity: 2.155 ± 0.086 mPa·s
653.6 K
  viscosity: 2.05 ± 0.082 mPa·s
673.2 K
  viscosity: 1.811 ± 0.073 mPa·s
676.8 K
  viscosity: 1.768 ± 0.071 mPa·s
691.9 K
  viscosity: 1.719 ± 0.069 mPa·s
709.7 K
  viscosity: 1.627 ± 0.065 mPa·s
714.6 K
  viscosity: 1.537 ± 0.062 mPa·s
732.4 K
  viscosity: 1.564 ± 0.063 mPa·s
752.1 K
  viscosity: 1.43 ± 0.057 mPa·s
